Experimental findings from patent US8901276B2, “Peptide reagents and methods for detection of colon dysplasia” (The Regents of the University of Michigan, priority 2010, dated 2014) are described below.

Where no end group is shown, it is not given here.

The subject of one test is excised polyps. The test can be described thus: Ex vivo peptide binding to excised polyps. Further details: species or system CPC;Apc mice. The note with it: 100 μM, 5 min. As for the experimental part:
Polyps from CPC;Apc mice (n=3 mice, 5 polyp pairs) were excised and washed 3× in PBS. The polyps were incubated in 100 μM peptide solution for 5 minutes and subsequently washed 3× with 1×PBS. Polyps were grossly imaged using the small animal endoscope to view binding to the polyp as a whole. Pairs of polyps (one candidate, one control) were imaged at a time to allow for the calculation of a candidate peptide to Control peptide 1 binding ratio for each pair analyzed. An average binding ratio was calculated ± one standard deviation. A similar procedure to determine mean grey scale values for image analysis was followed for the ex vivo polyps as described above for the in vivo polyps.

The test system of another test is adenomatous polyps. The test can be described thus: Confocal microscopy of polyp biopsy after in vivo peptide administration. Further details: species or system CPC;Apc mice. The note with it: biopsy after in vivo FITC-peptide administration. The method, then: Preferential binding of Peptide compared to the Control peptide 1 on the adenomatous polyps was confirmed with confocal microscopy. A polyp biopsy was taken after 5′-FITC-labeled peptide administration in vivo, incubated in 1 μg/mL Hoechst dye for 5 minutes to stain living nuclei, rinsed 3× with 1×PBS and imaged on a Leica Confocal Microscope (Leica Microsystems, Bannockburn, Ill.).

As for “QPIHPNNM (also: FITC or Cy5.5 label) [Peptide 1, tested FITC- or Cy5.5-labeled]”, the “increase in binding compared to Control peptide 1” value with excised polyps is reported as around 2 fold. Also, the “binding to adenomas, confocal images of biopsied polyps” value with adenomatous polyps is on record as “bound more to adenomas than the Control peptide 1”.
